Patent US20200361914A1, “SUBSTITUTED BENZENE AND 6,5-FUSED BICYCLIC HETEROARYL COMPOUNDS” (Epizyme, Inc., priority 2014, published 2020)
Like-named read-outs stand apart in the source and are kept apart here.

Tests used:
[1] = tested on: H3K27 trimethylation in WSU-DLCL2 cells; assay: WSU-DLCL2 methylation assay (H3K27me3 ELISA); assay type: cell-based, Human; settings: H3K27me3 normalised to total H3, read-out: EZH2 WSU ELISA IC50
From the text: WSU-DLCL2 Methylation Assay
WSU-DLCL2 suspension cells are purchased from DSMZ (German Collection of Microorganisms and Cell Cultures, Braunschweig, Germany). RPMI/Glutamax Medium, Penicillin-Streptomycin, Heat Inactivated Fetal Bovine Serum, and D-PBS were purchased from Life Technologies, Grand Island, N.Y., USA. Extraction Buffer and Neutralization Buffer (5×) were purchased from Active Motif, Carlsbad, Calif., USA. Rabbit anti-Histone H3 antibody is purchased from Abcam, Cambridge, Mass., USA. Rabbit anti-H3K27me3 and HRP-conjugated anti-rabbit-IgG are purchased from Cell Signaling Technology, Danvers, Mass., USA. TMB “Super Sensitive” substrate is sourced from BioFX Laboratories, Owings Mills, Md., USA. IgG-free Bovine Serum Albumin is purchased from Jackson ImmunoResearch, West Grove, Pa., USA. PBS with Tween (10×PBST) was purchased from KPL, Gaithersburg, Md., USA. Sulfuric Acid is purchased from Ricca Chemical, Arlington, Tex., USA. Immulon ELISA plates were purchased from Thermo, Rochester, N.Y., USA. V-bottom cell culture plates are purchased from Corning Inc., Corning, N.Y., USA.V-bottom polypropylene plates were purchased from Greiner Bio-One, Monroe, N.C., USA.
WSU-DLCL2 suspension cells are maintained in growth medium (RPMI 1640 supplemented with 10% v/v heat inactivated fetal bovine serum and 100 units/mL penicillin-streptomycin) and cultured at 37° C. under 5% CO2. Under assay conditions, cells are incubated in Assay Medium (RPMI 1640 supplemented with 20% v/v heat inactivated fetal bovine serum and 100 units/mL penicillin-streptomycin) at 37° C. under 5% CO2 on a plate shaker.
WSU-DLCL2 cells are seeded in assay medium at a concentration of 50,000 cells per mL to a 96-well V-bottom cell culture plate with 200 μL per well. Compound (1 μL) from 96 well source plates is added directly to V-bottom cell plate. Plates are incubated on a titer-plate shaker at 37° C., 5% CO2 for 96 hours. After four days of incubation, plates are spun at 241×g for five minutes and medium was aspirated gently from each well of cell plate without disturbing cell pellet. Pellet is resuspended in 200 μL DPBS and plates are spun again at 241×g for five minutes. The supernatant is aspirated and cold (4° C.) Extraction buffer (100 μL) is added per well. Plates are incubated at 4° C. on orbital shaker for two hours. Plates are spun at 3427×g x 10 minutes. Supernatant (80 μL per well) is transferred to its respective well in 96 well V-bottom polypropylene plate. Neutralization Buffer 5×(20 μL per well) is added to V-bottom polypropylene plate containing supernatant. V-bottom polypropylene plates containing crude histone preparation (CHP) are incubated on orbital shaker x five minutes. Crude Histone Preparations are added (2 μL per well) to each respective well into duplicate 96 well ELISA plates containing 100 μL Coating Buffer (1×PBS+BSA 0.05% w/v). Plates are sealed and incubated overnight at 4° C. The following day, plates were washed three times with 300 μL per well 1×PBST. Wells are blocked for two hours with 300 μL per well ELISA Diluent ((PBS (1×) BSA (2% w/v) and Tween20 (0.05% v/v)). Plates are washed three times with 1×PBST. For the Histone H3 detection plate, 100 μL per well are added of anti-Histone-H3 antibody (Abcam, ab1791) diluted 1:10,000 in ELISA Diluent. For H3K27 trimethylation detection plate, 100 μL per well are added of anti-H3K27me3 diluted 1:2000 in ELISA diluent. Plates are incubated for 90 minutes at room temperature. Plates are washed three times with 300 μL 1×PBST per well. For Histone H3 detection, 100 μL of HRP-conjugated anti-rabbit IgG antibody diluted to 1:6000 in ELISA diluent is added per well. For H3K27me3 detection, 100 μL of HRP conjugated anti-rabbit IgG antibody diluted to 1:4000 in ELISA diluent is added per well. Plates are incubated at room temperature for 90 minutes. Plates are washed four times with 1×PBST 300 μL per well. TMB substrate 100 μL is added per well. […]

[2] = biological target: Y641 mutant PRC2 enzyme (EZH2 Y641) (Homo sapiens, UniProt Q15910, Y641F); assay: PRC2 enzyme assay on peptide substrate, Y641 mutant EZH2
From the text: (§1) S-adenosylmethionine (SAM), S-adenosylhomocyteine (SAH), bicine, KCl, Tween20, dimethylsulfoxide (DMSO) and bovine skin gelatin (BSG) can be purchased from Sigma-Aldrich at the highest level of purity possible. Dithiothreitol (DTT) was purchased from EMD. ^3H-SAM can be purchased from American Radiolabeled Chemicals with a specific activity of 80 C1/mmol. 384-well streptavidin Flashplates can be purchased from PerkinElmer.
(§2) Recombinant PRC2 Enzymes. Human PRC2 enzymes are purified as 4-component enzyme complexes co-expressed in Spodoptera frugiperda (sf9) cells using a baculovirus expression system. […] The EED subunit contains an N-terminal FLAG tag that is used to purify the entire 4-component complex from sf9 cell lysates. The purity of the complexes meets or exceeds 95% as determined by SDS-PAGE and Agilent Bioanalyzer analysis.
(§3) General Procedure for PRC2 Enzyme Assays on Peptide Substrates. The assays are all performed in a buffer consisting of 20 mM bicine (pH=7.6), 0.5 mM DTT, 0.005% BSG and 0.002% Tween20, prepared on the day of use. […] DMSO (1 μL) is added to columns 11, 12, 23, 24, rows A-H for the maximum signal control, and SAH, a known product and inhibitor of PRC2 (1 μL) is added to columns 11, 12, 23, 24, rows I-P for the minimum signal control. A cocktail (40 μL) containing the wild-type PRC2 enzyme and H3K27me0 peptide or any of the Y641 mutant enzymes and H3K27me2 peptide is added by Multidrop Combi (Thermo). The compounds are allowed to incubate with PRC2 for 30 min at 25° C., then a cocktail (10 μL) containing a mixture of non-radioactive and ^3H-SAM is added to initiate the reaction (final volume=51 μL). […] The assays are stopped by the addition of non-radioactive SAM (10 μL) to a final concentration of 600 μM, which dilutes the ^3H-SAM to a level where its incorporation into the peptide substrate is no longer detectable. 50 μL of the reaction in the 384-well polypropylene plate is then transferred to a 384-well Flashplate and the biotinylated peptides are allowed to bind to the streptavidin surface for at least 1h before being washed three times with 0.1% Tween20 in a Biotek ELx405 plate washer. The plates are then read in a PerkinElmer TopCount platereader to measure the quantity of ^3H-labeled peptide bound to the Flashplate surface, measured as disintegrations per minute (dpm) or alternatively, referred to as counts per minute (cpm).
(§4) Where dpm=disintegrations per minute, cmpd=signal in assay well, and min and max are the respective minimum and maximum signal controls.
(§5) Where top and bottom are the normally allowed to float, but may be fixed at 100 or 0 respectively in a 3-parameter fit. The Hill Coefficient normally allowed to float but may also be fixed at 1 in a 3-parameter fit. Y is the % inhibition and X is the compound concentration.

[3] = biological target: wild-type PRC2 enzyme (EZH2 WT) (Homo sapiens, UniProt Q15910); assay: PRC2 enzyme assay on peptide substrate, wild-type EZH2
From the text: as §1, §2, §3, §4, §5

[4] = Homo sapiens, WSUDLCL2, 96 h, 96 hours incubation
[5] = Homo sapiens, WSUDLCL2, 96 hours incubation

Y641 mutant PRC2 enzyme (EZH2 Y641), sequence (Q15910 whole entry Y641F): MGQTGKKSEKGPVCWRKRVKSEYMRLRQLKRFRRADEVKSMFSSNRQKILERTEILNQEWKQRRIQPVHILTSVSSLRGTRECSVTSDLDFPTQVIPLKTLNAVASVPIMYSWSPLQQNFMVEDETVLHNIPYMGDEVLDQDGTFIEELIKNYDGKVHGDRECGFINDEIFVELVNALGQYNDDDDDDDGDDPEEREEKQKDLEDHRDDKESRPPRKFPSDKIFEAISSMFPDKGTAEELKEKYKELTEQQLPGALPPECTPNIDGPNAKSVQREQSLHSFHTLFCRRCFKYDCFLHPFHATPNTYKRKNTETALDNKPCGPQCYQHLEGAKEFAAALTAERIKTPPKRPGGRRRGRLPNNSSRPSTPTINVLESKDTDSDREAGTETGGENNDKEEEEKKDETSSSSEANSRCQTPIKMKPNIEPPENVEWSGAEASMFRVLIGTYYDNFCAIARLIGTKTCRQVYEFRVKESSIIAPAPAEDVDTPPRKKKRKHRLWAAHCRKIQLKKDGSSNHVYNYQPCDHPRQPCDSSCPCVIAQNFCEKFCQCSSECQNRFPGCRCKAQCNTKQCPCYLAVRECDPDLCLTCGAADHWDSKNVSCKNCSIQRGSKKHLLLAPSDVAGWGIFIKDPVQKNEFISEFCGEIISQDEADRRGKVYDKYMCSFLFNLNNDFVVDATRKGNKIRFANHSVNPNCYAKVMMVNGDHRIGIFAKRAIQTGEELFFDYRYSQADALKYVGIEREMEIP
Y641 mutant PRC2 enzyme (EZH2 Y641), sequence (O75530 whole entry partner): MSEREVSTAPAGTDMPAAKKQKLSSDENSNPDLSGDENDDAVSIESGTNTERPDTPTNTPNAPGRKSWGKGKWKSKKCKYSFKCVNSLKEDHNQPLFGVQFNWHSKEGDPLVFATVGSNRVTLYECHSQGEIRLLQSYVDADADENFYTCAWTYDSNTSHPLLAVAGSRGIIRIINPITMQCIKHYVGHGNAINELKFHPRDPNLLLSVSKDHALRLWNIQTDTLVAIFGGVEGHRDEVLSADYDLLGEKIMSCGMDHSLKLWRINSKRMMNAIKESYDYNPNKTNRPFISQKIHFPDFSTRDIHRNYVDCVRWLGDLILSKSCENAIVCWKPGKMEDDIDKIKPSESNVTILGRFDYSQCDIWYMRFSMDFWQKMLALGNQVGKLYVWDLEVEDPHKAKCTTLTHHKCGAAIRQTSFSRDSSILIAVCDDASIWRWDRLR
Y641 mutant PRC2 enzyme (EZH2 Y641), sequence (Q15022 whole entry partner): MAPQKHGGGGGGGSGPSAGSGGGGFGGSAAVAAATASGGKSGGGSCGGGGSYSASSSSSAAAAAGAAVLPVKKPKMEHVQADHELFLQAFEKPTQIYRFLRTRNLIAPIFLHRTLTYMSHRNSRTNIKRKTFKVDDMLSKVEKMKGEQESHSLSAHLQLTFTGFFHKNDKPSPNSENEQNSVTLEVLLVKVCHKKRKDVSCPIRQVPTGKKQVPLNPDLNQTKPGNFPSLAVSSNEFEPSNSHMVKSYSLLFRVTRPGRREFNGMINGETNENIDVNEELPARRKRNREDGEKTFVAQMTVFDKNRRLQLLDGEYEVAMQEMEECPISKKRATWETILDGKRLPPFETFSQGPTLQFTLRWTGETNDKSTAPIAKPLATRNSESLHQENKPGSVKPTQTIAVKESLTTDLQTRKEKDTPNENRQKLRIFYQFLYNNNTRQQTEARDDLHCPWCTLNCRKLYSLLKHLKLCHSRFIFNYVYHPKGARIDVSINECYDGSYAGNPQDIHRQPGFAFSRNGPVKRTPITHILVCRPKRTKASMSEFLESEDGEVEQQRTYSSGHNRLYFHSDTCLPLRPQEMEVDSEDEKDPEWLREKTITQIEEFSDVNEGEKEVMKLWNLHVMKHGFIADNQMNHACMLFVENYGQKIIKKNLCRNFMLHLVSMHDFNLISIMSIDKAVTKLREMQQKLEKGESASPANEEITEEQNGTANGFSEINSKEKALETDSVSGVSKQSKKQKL
Y641 mutant PRC2 enzyme (EZH2 Y641), sequence (Q09028 whole entry partner): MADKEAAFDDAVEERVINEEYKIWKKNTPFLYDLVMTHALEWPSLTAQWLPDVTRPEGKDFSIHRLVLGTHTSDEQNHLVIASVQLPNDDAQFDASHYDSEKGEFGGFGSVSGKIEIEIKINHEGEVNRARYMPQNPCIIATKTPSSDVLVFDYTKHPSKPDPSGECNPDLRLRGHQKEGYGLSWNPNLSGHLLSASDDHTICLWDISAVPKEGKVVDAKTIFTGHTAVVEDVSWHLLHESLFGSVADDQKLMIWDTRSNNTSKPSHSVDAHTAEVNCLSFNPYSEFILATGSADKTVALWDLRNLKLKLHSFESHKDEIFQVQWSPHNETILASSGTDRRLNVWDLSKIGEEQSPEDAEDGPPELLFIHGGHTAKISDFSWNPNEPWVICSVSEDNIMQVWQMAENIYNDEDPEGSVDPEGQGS
wild-type PRC2 enzyme (EZH2 WT), sequence (Q15910 whole entry): as the sequence (Q15910 whole entry Y641F) above, with F641Y counted along it
wild-type PRC2 enzyme (EZH2 WT), sequence (O75530 whole entry partner): as the sequence (O75530 whole entry partner) above
wild-type PRC2 enzyme (EZH2 WT), sequence (Q15022 whole entry partner): as the sequence (Q15022 whole entry partner) above
wild-type PRC2 enzyme (EZH2 WT), sequence (Q09028 whole entry partner): as the sequence (Q09028 whole entry partner) above

## Cc1cc(C)c(CNC(=O)c2c(C)n(C(C)C3CCOCC3)c3ccccc23)c(=O)[nH]1 (racemic) [compound 19, N-((4,6-dimethyl-2-oxo-1,2-dihydropyridin-3-yl)methyl)-2-methyl-1-(1-(tetrahydro-2H-pyran-4-yl)ethyl)-1H-indole-3-carboxamide]
[1]; [4]
  IC50: 1 to 10 µM

## COc1cc(C)[nH]c(=O)c1CNC(=O)c1c(C)n(C(C)C2CCOCC2)c2ccccc12 (racemic) [compound 24, N-((4-methoxy-6-methyl-2-oxo-1,2-dihydropyridin-3-yl)methyl)-2-methyl-1-(1-(tetrahydro-2H-pyran-4-yl)ethyl)-1H-indole-3-carboxamide]
[1]; [4]
  IC50: 1 to 10 µM

## COc1cc(C)[nH]c(=O)c1CNC(=O)c1c(C)n(C(C)C2CCOCC2)c2ccccc12 (single isomer, unassigned) [24a, N-((4-methoxy-6-methyl-2-oxo-1,2-dihydropyridin-3-yl)methyl)-2-methyl-1-(1-(tetrahydro-2H-pyran-4-yl)ethyl)-1H-indole-3-carboxamide]
[1]; 96 hours incubation
  IC50: 10 to 50 µM

## COc1cc(C)[nH]c(=O)c1CNC(=O)c1c(C)n(C(C)C2CCOCC2)c2ccccc12 (single isomer, unassigned) [24b, N-((4-methoxy-6-methyl-2-oxo-1,2-dihydropyridin-3-yl)methyl)-2-methyl-1-(1-(tetrahydro-2H-pyran-4-yl)ethyl)-1H-indole-3-carboxamide]
[1]; 96 hours incubation
  IC50: 1 to 10 µM

## Cc1cc(C)c(CNC(=O)c2ccc(C(C)Oc3ccccc3)cc2C)c(=O)[nH]1 (centres unmarked) [compound 5, N-((4,6-dimethyl-2-oxo-1,2-dihydropyridin-3-yl)methyl)-2-methyl-4-(1-phenoxyethyl)benzamide]
[1]; [5]
  IC50: 10 to 50 µM
[2]
  IC50: 0.1 to 1 µM
[3]
  IC50: 100 to 1000 nM

## Cc1cc(=O)c(CNC(=O)c2ccc(C(C)Oc3ccccc3)cc2C)c(C)[nH]1 (centres unmarked) [compound 6, N-((2,6-dimethyl-4-oxo-1,4-dihydropyridin-3-yl)methyl)-2-methyl-4-(1-phenoxyethyl)benzamide]
[1]; [5]
  IC50: > 25 µM
[2]
  IC50: 10 to 50 µM
[3]
  IC50: > 50000 nM

## Cc1cc(C)c(CNC(=O)c2cc(Cl)c(C(C)Oc3ccccc3)cc2C)c(=O)[nH]1 (centres unmarked) [compound 12, 5-chloro-N-((4,6-dimethyl-2-oxo-1,2-dihydropyridin-3-yl)methyl)-2-methyl-4-(1-phenoxyethyl)benzamide]
[1]; [5]
  IC50: > 25 µM
[2]
  IC50: < 0.1 µM
[3]
  IC50: 100 to 1000 nM

## Cc1cc(=O)c(CNC(=O)c2cc(Cl)c(Oc3cccc(-c4ccnnc4)c3C#N)cc2C)c(C)[nH]1 [compound 16, 5-chloro-4-(2-cyano-3-(pyridazin-4-yl)phenoxy)-N-((2,6-dimethyl-4-oxo-1,4-dihydropyridin-3-yl)methyl)-2-methylbenzamide]
[1]; [5]
  IC50: > 25 µM

## CCC(C)n1cc(C)c2c(C(=O)NCc3c(C)[nH]c(C)cc3=O)cc(-c3ccc(N4CCNCC4)nc3)cc21 (centres unmarked) [compound 25, 1-(sec-butyl)-N-((2,6-dimethyl-4-oxo-1,4-dihydropyridin-3-yl)methyl)-3-methyl-6-(6-(piperazin-1-yl)pyridin-3-yl)-1H-indole-4-carboxamide]
[1]; [5]
  IC50: 10 to 50 µM
[2]
  IC50: < 0.1 µM
[3]
  IC50: < 100 nM

## CCN(c1cc(-c2ccc(OCCOC)cc2)cc(C(=O)NC2CC(C)(C)NC(C)(C)C2)c1C)[C@H]1CC[C@H](N(C)C)CC1 [compound 33, 5-(((trans)-4-(dimethylamino)cyclohexyl)(ethyl)amino)-4′-(2-methoxyethoxy)-4-methyl-N-(2,2,6,6-tetramethylpiperidin-4-yl)-[1,1′-biphenyl]-3-carboxamide]
[1]; [5]
  IC50: > 25 µM
[2]
  IC50: 10 to 50 µM
[3]
  IC50: 10000 to 50000 nM
